For 27 molecules, IC50 results are on record in patent US20240109917A1 (ACTELION PHARMACEUTICALS LTD, priority 2020, published 2024).

The target of the assay is VEGFR2, unphosphorylated (Homo sapiens (Human), UniProt P35968). Kind of assay: VEGFR ADP GLO Assay. The class given is biochemical. (In ADP-Glo the light output rises with the ADP produced.)
Chain of VEGFR2, unphosphorylated (P35968 20-1356): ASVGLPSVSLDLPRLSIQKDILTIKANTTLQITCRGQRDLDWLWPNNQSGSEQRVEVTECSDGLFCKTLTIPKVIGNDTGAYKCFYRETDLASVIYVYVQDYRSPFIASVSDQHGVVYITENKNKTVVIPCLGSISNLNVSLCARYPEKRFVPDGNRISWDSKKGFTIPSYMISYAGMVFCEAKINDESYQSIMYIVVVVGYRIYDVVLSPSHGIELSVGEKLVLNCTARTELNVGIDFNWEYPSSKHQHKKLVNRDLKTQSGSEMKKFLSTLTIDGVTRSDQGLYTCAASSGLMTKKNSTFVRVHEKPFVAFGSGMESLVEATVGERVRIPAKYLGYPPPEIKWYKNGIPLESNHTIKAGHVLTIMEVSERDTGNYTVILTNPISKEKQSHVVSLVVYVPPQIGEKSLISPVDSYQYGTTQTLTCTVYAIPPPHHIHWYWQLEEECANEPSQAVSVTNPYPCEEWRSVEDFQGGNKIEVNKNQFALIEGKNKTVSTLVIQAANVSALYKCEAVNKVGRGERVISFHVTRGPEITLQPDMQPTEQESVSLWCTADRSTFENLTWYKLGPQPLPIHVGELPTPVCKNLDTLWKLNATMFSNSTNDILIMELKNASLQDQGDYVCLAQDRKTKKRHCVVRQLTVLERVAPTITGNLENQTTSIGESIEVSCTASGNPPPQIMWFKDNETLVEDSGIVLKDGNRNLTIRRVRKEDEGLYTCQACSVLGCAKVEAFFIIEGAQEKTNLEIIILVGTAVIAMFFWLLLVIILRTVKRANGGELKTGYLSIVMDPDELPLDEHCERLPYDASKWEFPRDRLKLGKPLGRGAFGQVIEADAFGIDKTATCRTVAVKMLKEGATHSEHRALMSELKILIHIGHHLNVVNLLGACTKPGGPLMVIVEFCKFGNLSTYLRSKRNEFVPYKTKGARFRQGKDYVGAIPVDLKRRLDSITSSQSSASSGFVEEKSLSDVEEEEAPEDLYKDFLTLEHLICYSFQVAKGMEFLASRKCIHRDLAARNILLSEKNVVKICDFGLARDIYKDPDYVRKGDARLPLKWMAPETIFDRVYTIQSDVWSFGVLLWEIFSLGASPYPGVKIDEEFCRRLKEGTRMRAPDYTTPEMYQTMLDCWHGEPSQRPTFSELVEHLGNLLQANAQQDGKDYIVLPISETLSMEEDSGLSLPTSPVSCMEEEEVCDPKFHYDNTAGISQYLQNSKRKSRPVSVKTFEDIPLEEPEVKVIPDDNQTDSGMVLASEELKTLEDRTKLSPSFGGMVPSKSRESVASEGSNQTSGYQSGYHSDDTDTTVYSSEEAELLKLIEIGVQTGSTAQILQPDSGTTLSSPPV
By IC50 is commonly meant the concentration at which inhibition is half-maximal. The low end stands for inhibition by little substance, the high end for a need for much substance. The molecule `Cc1ncc(NC(=O)CN2CC(C)(C)C2)cc1NC(=O)c1cnn2cc(-c3ccnnc3C)sc12` [Example 410, N-(5-(2-(3,3-dimethylazetidin-1-yl)acetamido)-2-methylpyridin-3-yl)-2-(3-methylpyridazin-4-yl)pyrazolo[5,1-b]thiazole-7-carboxamide] registered an IC50 of over 7.5 µM.
The same measure for `Cc1ncc(NC(=O)CN2CC(C)(C)C2)cc1NC(=O)c1cnn2cc(-c3cnn4c3CCC4)sc12` [Example 409, 2-(5,6-dihydro-4H-pyrrolo[1,2-b]pyrazol-3-yl)-N-(5-(2-(3,3-dimethylazetidin-1-yl)acetamido)-2-methylpyridin-3-yl)pyrazolo[5,1-b]thiazole-7-carboxamide]: 3.37 µM; for `Cc1ncc(NC(=O)CN2CC3(CCCCO3)C2)cc1NC(=O)c1cnn2cc(-c3cnn4c3CCC4)sc12` [Example 424, N-(5-(2-(5-oxa-2-azaspiro[3.5]nonan-2-yl)acetamido)-2-methylpyridin-3-yl)-2-(5,6-dihydro-4H-pyrrolo[1,2-b]pyrazol-3-yl)pyrazolo[5,1-b]thiazole-7-carboxamide]: over 7.5 µM; for `Cc1ncc(C(=O)NCCN2CC3CCC2CC3)cc1NC(=O)c1cnn2cc(-c3cnn4c3OCCC4)sc12` [Example 477, N-(5-((2-(2-azabicyclo[2.2.2]octan-2-yl)ethyl)carbamoyl)-2-methylpyridin-3-yl)-2-(6,7-dihydro-5H-pyrazolo[5,1-b][1,3]oxazin-3-yl)pyrazolo[5,1-b]thiazole-7-carboxamide]: over 7.5 µM.
The figure for `Cc1ncc(NC(=O)CNCC2CC2)cc1NC(=O)c1cnn2cc(-c3cnn4c3CCC4)sc12` [Example 454, N-(5-(2-((cyclopropylmethyl)amino)acetamido)-2-methylpyridin-3-yl)-2-(5,6-dihydro-4H-pyrrolo[1,2-b]pyrazol-3-yl)pyrazolo[5,1-b]thiazole-7-carboxamide] is over 7.5 µM.
The figure for `COCCn1cc(-c2cn3ncc(C(=O)Nc4cc(NC(=O)CCC5CCCN5C(C)C)cnc4C)c3s2)cn1` (stereo not drawn) [Example 463, N-(5-(3-(1-isopropylpyrrolidin-2-yl)propanamido)-2-methylpyridin-3-yl)-2-(1-(2-methoxyethyl)-1H-pyrazol-4-yl)pyrazolo[5,1-b]thiazole-7-carboxamide] is over 7.5 µM.
`Cc1ncc(C(=O)NCCN2CCCC2(C)C)cc1NC(=O)c1cnn2cc(-c3cnn4c3CCC4)sc12` [Example 481, 2-(5,6-dihydro-4H-pyrrolo[1,2-b]pyrazol-3-yl)-N-(5-((2-(2,2-dimethylpyrrolidin-1-yl)ethyl)carbamoyl)-2-methylpyridin-3-yl)pyrazolo[5,1-b]thiazole-7-carboxamide] yielded an IC50 of over 7.5 µM.
The figure for `Cc1ncc(NC(=O)CN2CC(C)(C)C2)cc1NC(=O)c1cnn2cc(-c3cnc4n3CCOC4)sc12` [Example 415, 2-(5,6-dihydro-8H-imidazo[2,1-c][1,4]oxazin-3-yl)-N-(5-(2-(3,3-dimethylazetidin-1-yl)acetamido)-2-methylpyridin-3-yl)pyrazolo[5,1-b]thiazole-7-carboxamide] is over 7.5 µM.
The figure for `Cc1ncc(NC(=O)CNC2CCCC2)cc1NC(=O)c1cnn2cc(-c3cnn4c3OCCC4)sc12` [Example 421, N-(5-(2-(cyclopentylamino)acetamido)-2-methylpyridin-3-yl)-2-(6,7-dihydro-5H-pyrazolo[5,1-b][1,3]oxazin-3-yl)pyrazolo[5,1-b]thiazole-7-carboxamide] is over 7.5 µM; for `Cc1ncc(NC(=O)CC2CNC2)cc1NC(=O)c1cnn2cc(-c3cnn4c3CCC4)sc12` [Example 426, N-(5-(2-(azetidin-3-yl)acetamido)-2-methylpyridin-3-yl)-2-(5,6-dihydro-4H-pyrrolo[1,2-b]pyrazol-3-yl)pyrazolo[5,1-b]thiazole-7-carboxamide] it is over 7.5 µM; for `Cc1cc(C(=O)NCCN2CCCC2(C)C)sc1NC(=O)c1cnn2cc(-c3cccnc3)sc12` [Example 36, N-(5-((2-(2,2-dimethylpyrrolidin-1-yl)ethyl)carbamoyl)-3-methylthiophen-2-yl)-2-(pyridin-3-yl)pyrazolo[5,1-b]thiazole-7-carboxamide] it is over 7.5 µM.
As for `Cc1ncc(NC(=O)CN2CCCC[C@@H]2C)cc1NC(=O)c1cnn2cc(-c3cnn(CCO)c3)sc12` [Example 34, (S)-2-(1-(2-hydroxyethyl)-1H-pyrazol-4-yl)-N-(2-methyl-5-(2-(2-methyl-piperidin-1-yl)acetamido)pyridin-3-yl)pyrazolo[5,1-b]thiazole-7-carboxamide], the IC50 is over 7.5 µM.
On to `Cc1ncc(NC(=O)C[C@H]2CCN(C(C)C)C2)cc1NC(=O)c1cnn2cc(-c3cnn(C)c3)sc12` [Example 465, (R)—N-(5-(2-(1-isopropylpyrrolidin-3-yl)acetamido)-2-methylpyridin-3-yl)-2-(1-methyl-1H-pyrazol-4-yl)pyrazolo[5,1-b]thiazole-7-carboxamide], for which the IC50 was over 7.5 µM.
The figure for `CCCNCC(=O)Nc1cnc(C)c(NC(=O)c2cnn3cc(-c4cnn5c4OCCC5)sc23)c1` [Example 455, 2-(6,7-dihydro-5H-pyrazolo[5,1-b][1,3]oxazin-3-yl)-N-(2-methyl-5-(2-(propylamino)acetamido)pyridin-3-yl)pyrazolo[5,1-b]thiazole-7-carboxamide] is over 7.5 µM; for `Cc1ncc(NC(=O)CN2CCC3(CC3)C2)cc1NC(=O)c1cnn2cc(-c3cnn4c3COCC4)sc12` [Example 474, N-(5-(2-(5-azaspiro[2.4]heptan-5-yl)acetamido)-2-methylpyridin-3-yl)-2-(6,7-dihydro-4H-pyrazolo[5,1-c][1,4]oxazin-3-yl)pyrazolo[5,1-b]thiazole-7-carboxamide] it is over 7.5 µM; for `Cc1ncc(NC(=O)CN2CCCC2(C)C)cc1NC(=O)c1cnn2cc(-c3cnn4c3COCC4)sc12` [Example 458, 2-(6,7-dihydro-4H-pyrazolo[5,1-c][1,4]oxazin-3-yl)-N-(5-(2-(2,2-dimethylpyrrolidin-1-yl)acetamido)-2-methylpyridin-3-yl)pyrazolo[5,1-b]thiazole-7-carboxamide] it is over 7.5 µM.
The molecule `Cc1ncc(NC(=O)CN2CC(C)(C)C2)cc1NC(=O)c1cnn2cc(-c3nn(C)nc3C)sc12` [Example 445, 2-(2,5-Dimethyl-2H-1,2,3-triazol-4-yl)-N-(5-(2-(3,3-dimethylazetidin-1-yl)acetamido)-2-methylpyridin-3-yl)pyrazolo[5,1-b]thiazole-7-carboxamide] returned an IC50 of over 7.5 µM.
`Cc1ncc(NC(=O)CN2CCC[C@@H]2C)cc1NC(=O)c1cnn2cc(-c3cnn4c3CCC4)sc12` [Example 416, (S)-2-(5,6-dihydro-4H-pyrrolo[1,2-b]pyrazol-3-yl)-N-(2-methyl-5-(2-(2-methylpyrrolidin-1-yl)acetamido)pyridin-3-yl)pyrazolo[5,1-b]thiazole-7-carboxamide]: the IC50 was over 7.5 µM.
The same measure for `Cc1cc(C(=O)NCCN2CCCC23CC3)sc1NC(=O)c1cnn2cc(-c3cnn(C)c3)sc12` [Example 37, N-(5-((2-(4-azaspiro[2.4]heptan-4-yl)ethyl)carbamoyl)-3-methylthiophen-2-yl)-2-(1-methyl-1H-pyrazol-4-yl)pyrazolo[5,1-b]thiazole-7-carboxamide]: over 7.5 µM; for `COCCn1cc(-c2cn3ncc(C(=O)Nc4cc(NC(=O)C[C@@H]5CCN(C(C)C)C5)cnc4C)c3s2)cn1` [Example 466, (S)—N-(5-(2-(1-isopropylpyrrolidin-3-yl)acetamido)-2-methylpyridin-3-yl)-2-(1-(2-methoxyethyl)-1H-pyrazol-4-yl)pyrazolo[5,1-b]thiazole-7-carboxamide]: over 7.5 µM; for `CCOc1ncccc1-c1cn2ncc(C(=O)Nc3cc(NC(=O)CN4CC(C)(C)C4)cnc3C)c2s1` [Example 436, N-(5-(2-(3,3-Dimethylazetidin-1-yl)acetamido)-2-methylpyridin-3-yl)-2-(2-ethoxypyridin-3-yl)pyrazolo[5,1-b]thiazole-7-carboxamide]: 4.3 µM.
The same measure for `Cc1ncc(C(=O)NCCN2CCCC23CCC3)cc1NC(=O)c1cnn2cc(-c3cnn4c3OCCC4)sc12` [Example 478, N-(5-((2-(5-azaspiro[3.4]octan-5-yl)ethyl)carbamoyl)-2-methylpyridin-3-yl)-2-(6,7-dihydro-5H-pyrazolo[5,1-b][1,3]oxazin-3-yl)pyrazolo[5,1-b]thiazole-7-carboxamide]: 2.56 µM.
`Cc1ncc(NC(=O)C[C@@H]2CCN(C(C)C)C2)cc1NC(=O)c1cnn2cc(-c3cnn(C)c3)sc12` [Example 464, (S)—N-(5-(2-(1-isopropylpyrrolidin-3-yl)acetamido)-2-methylpyridin-3-yl)-2-(1-methyl-1H-pyrazol-4-yl)pyrazolo[5,1-b]thiazole-7-carboxamide] had an IC50 of over 7.5 µM.
The same measure for `Cc1ncc(C(=O)NCCN2CCCC23CCC3)cc1NC(=O)c1cnn2cc(-c3cnn4c3COCC4)sc12` [Example 472, N-(5-((2-(5-azaspiro[3.4]octan-5-yl)ethyl)carbamoyl)-2-methylpyridin-3-yl)-2-(6,7-dihydro-4H-pyrazolo[5,1-c][1,4]oxazin-3-yl)pyrazolo[5,1-b]thiazole-7-carboxamide]: over 7.5 µM; for `Cc1cc(C(=O)NCCN2CCCC23CCC3)sc1NC(=O)c1cnn2cc(-c3cnn(C)c3)sc12` [Example 35, N-(5-((2-(5-azaspiro[3.4]octan-5-yl)ethyl)carbamoyl)-3-methylthiophen-2-yl)-2-(1-methyl-1H-pyrazol-4-yl)pyrazolo[5,1-b]thiazole-7-carboxamide]: over 7.5 µM.
On to `Cc1ncc(NC(=O)CN2CCCC2(C)C)cc1NC(=O)c1cnn2cc(-c3cn(C)nc3C)sc12` [Example 444, 2-(1,3-Dimethyl-1H-pyrazol-4-yl)-N-(5-(2-(2,2-dimethylpyrrolidin-1-yl)acetamido)-2-methylpyridin-3-yl)pyrazolo[5,1-b]thiazole-7-carboxamide], for which the IC50 was over 7.5 µM.
Consider `COCCn1cc(-c2cn3ncc(C(=O)Nc4cc(NC(=O)CCC5CCCN5C)cnc4C)c3s2)cn1` (stereo not drawn) [Example 462, 2-(1-(2-methoxyethyl)-1H-pyrazol-4-yl)-N-(2-methyl-5-(3-(1-methylpyrrolidin-2-yl)propanamido)pyridin-3-yl)pyrazolo[5,1-b]thiazole-7-carboxamide], for which the concentration for half-maximal inhibition (IC50) is over 7.5 µM.
